The source of these data is ChEMBL document CHEMBL1150977, “A quantitative analysis of kinase inhibitor selectivity” (Nat Biotechnol, 2008).

The target in experiment [1] is T1, Serine/threonine-protein kinase D1 (Homo sapiens, UniProt Q15139).
T1 sequence (Q15139 whole entry): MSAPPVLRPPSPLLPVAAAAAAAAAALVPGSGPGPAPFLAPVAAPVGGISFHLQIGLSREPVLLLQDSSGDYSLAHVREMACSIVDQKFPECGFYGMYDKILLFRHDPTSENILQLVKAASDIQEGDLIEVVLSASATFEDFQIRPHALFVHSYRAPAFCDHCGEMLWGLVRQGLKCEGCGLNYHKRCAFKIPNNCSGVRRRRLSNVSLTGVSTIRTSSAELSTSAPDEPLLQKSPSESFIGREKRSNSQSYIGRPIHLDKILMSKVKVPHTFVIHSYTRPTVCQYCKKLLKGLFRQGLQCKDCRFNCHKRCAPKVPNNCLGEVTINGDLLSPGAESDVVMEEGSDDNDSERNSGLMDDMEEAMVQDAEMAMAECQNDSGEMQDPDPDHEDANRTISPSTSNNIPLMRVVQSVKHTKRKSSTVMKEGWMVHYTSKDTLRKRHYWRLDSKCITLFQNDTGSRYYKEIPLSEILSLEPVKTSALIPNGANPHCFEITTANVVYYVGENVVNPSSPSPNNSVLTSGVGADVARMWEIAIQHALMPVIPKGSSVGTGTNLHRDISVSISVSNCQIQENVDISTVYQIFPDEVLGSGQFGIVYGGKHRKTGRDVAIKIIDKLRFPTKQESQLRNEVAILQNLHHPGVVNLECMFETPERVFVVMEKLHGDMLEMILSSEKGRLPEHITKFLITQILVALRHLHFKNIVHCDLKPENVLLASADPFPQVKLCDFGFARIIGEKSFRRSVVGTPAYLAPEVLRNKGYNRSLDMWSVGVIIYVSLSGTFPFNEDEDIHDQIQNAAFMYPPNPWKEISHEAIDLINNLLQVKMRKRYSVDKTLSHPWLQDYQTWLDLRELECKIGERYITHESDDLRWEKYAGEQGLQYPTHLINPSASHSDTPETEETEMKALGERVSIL

The target of another experiment is T2, Ephrin type-B receptor 3 (Homo sapiens, UniProt P54753).
T2 sequence (P54753 whole entry): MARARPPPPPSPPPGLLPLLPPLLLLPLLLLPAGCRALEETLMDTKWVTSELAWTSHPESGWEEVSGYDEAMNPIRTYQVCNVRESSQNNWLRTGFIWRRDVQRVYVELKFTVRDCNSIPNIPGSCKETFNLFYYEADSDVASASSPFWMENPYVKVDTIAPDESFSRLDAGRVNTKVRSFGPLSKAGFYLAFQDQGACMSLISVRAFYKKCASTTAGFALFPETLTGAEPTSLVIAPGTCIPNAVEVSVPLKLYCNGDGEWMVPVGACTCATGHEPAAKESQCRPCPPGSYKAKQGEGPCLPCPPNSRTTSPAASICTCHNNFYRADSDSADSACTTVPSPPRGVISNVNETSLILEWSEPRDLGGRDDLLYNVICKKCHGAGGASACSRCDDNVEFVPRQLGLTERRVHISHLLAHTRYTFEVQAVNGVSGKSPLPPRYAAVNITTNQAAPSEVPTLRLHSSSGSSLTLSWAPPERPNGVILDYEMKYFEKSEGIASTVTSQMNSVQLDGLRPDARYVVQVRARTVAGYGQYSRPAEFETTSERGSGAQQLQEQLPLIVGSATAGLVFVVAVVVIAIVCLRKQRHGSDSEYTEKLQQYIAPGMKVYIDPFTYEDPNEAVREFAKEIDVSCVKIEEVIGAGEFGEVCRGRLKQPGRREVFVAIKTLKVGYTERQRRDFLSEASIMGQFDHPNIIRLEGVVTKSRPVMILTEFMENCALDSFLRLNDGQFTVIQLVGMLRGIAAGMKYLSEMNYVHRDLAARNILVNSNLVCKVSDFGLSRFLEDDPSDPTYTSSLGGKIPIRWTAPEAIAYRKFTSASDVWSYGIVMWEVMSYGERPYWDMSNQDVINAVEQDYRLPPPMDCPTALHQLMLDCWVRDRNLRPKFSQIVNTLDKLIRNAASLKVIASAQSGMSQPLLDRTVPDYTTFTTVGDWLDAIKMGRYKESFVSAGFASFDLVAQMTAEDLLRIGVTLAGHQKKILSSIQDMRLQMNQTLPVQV

Experiment [2] addresses T3, Serine/threonine-protein kinase D2 (Homo sapiens, UniProt Q9BZL6).
T3 sequence (Q9BZL6 whole entry): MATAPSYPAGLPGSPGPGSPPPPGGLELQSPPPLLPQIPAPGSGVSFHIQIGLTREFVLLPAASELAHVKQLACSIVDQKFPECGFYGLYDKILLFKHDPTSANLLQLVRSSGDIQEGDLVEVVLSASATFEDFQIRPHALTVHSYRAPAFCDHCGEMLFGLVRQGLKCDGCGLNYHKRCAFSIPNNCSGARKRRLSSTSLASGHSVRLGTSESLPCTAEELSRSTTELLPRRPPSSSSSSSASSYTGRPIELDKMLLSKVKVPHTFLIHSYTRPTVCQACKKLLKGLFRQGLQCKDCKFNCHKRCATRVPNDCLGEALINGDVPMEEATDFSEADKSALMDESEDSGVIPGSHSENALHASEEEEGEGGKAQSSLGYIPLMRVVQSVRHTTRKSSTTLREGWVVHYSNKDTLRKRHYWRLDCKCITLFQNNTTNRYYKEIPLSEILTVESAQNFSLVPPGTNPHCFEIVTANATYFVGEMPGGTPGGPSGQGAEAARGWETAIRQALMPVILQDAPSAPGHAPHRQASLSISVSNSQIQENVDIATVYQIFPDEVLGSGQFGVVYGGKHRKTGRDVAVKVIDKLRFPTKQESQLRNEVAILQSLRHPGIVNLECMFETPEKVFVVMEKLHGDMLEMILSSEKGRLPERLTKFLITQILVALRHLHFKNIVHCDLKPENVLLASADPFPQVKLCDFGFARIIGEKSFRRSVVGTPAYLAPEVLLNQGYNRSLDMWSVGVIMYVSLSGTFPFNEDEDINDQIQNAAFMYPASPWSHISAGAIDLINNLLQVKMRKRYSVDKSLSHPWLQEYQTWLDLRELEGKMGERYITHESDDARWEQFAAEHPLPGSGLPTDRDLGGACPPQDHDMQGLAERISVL

The target of experiment [3] is Mitogen-activated protein kinase kinase kinase kinase 1 (Homo sapiens, UniProt Q92918).
Chain of Mitogen-activated protein kinase kinase kinase kinase 1 (Q92918 whole entry): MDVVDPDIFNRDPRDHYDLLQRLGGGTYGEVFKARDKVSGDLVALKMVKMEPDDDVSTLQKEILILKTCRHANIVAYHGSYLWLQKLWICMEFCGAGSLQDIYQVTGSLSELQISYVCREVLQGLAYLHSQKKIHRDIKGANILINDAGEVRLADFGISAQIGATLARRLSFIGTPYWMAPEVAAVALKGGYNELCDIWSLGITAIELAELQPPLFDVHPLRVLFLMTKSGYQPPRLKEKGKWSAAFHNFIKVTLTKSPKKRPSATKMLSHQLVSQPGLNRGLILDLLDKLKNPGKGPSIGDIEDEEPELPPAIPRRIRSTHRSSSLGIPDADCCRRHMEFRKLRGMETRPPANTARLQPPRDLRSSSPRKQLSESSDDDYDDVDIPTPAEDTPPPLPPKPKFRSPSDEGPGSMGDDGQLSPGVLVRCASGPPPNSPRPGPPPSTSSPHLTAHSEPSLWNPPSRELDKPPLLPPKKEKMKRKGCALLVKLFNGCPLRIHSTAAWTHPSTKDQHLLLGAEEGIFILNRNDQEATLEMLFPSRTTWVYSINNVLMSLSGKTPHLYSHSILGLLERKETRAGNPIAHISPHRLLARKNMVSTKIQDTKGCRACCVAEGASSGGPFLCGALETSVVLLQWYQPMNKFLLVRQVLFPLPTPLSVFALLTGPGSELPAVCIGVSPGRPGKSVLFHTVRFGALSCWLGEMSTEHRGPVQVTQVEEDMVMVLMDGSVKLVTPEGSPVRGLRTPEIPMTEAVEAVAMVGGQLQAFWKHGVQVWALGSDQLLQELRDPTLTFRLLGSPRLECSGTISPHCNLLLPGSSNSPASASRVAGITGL
For experiment [4], the target named is Myosin light chain kinase, smooth muscle (Homo sapiens, UniProt Q15746).
Chain of Myosin light chain kinase, smooth muscle (Q15746 whole entry): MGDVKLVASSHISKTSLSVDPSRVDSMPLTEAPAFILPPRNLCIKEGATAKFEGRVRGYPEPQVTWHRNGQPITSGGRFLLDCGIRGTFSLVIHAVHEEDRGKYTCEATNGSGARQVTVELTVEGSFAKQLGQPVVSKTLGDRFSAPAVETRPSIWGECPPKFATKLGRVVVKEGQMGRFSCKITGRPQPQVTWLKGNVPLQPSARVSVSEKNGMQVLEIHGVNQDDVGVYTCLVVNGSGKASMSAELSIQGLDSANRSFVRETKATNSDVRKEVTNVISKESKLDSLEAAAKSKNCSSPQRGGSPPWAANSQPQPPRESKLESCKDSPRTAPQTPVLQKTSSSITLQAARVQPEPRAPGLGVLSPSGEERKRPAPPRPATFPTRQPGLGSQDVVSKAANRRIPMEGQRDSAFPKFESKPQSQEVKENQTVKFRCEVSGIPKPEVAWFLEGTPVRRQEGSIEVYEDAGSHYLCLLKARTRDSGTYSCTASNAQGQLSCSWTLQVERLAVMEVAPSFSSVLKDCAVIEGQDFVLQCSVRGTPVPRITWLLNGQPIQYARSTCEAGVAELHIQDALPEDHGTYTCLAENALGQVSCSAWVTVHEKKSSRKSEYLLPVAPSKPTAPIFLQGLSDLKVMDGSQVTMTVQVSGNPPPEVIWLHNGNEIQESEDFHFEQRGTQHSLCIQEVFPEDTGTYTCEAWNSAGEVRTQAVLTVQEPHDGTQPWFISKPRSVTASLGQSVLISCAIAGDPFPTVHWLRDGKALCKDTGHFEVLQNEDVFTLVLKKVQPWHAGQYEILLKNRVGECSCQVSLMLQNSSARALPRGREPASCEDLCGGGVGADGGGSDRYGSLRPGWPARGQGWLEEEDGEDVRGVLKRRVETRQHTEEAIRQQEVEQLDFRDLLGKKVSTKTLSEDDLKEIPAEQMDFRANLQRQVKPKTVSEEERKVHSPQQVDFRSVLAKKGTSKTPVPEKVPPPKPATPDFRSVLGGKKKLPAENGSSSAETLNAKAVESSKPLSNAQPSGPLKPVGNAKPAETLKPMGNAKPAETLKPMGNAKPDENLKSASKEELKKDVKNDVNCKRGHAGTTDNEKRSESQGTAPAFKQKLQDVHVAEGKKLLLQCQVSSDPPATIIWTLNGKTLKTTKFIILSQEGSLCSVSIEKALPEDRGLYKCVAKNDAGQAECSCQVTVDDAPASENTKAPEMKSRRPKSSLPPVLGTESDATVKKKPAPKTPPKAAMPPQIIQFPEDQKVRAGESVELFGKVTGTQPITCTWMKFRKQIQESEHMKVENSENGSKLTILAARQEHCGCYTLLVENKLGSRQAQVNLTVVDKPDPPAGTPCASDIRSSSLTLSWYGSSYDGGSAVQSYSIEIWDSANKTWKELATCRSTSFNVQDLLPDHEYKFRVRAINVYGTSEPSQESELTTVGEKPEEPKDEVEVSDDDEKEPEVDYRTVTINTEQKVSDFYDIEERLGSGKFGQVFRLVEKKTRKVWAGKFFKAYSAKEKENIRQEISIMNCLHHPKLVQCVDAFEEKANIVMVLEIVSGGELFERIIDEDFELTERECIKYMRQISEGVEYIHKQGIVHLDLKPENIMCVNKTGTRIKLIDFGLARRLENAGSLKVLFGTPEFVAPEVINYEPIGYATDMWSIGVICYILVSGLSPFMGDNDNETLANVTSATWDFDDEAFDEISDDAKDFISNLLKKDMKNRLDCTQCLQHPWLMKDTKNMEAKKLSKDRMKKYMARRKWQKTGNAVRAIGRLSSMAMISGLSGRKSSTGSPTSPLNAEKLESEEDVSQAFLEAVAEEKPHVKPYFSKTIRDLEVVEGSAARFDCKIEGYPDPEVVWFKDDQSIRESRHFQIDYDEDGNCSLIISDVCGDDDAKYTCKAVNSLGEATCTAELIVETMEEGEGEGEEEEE

pKd: −log10 of the molar value.

A word on the pKd: it is the negative decadic logarithm of the Kd, by convention in mol/L. A high value points to a small Kd. On to `COCC(=O)NC/C=C/c1ccc2ncnc(Nc3ccc(Oc4ccc(C)nc4)c(C)c3)c2c1` [CP-724714], for which the pKd (in experiment [1]; on Ephrin type-B receptor 3; in experiment [2]; in experiment [3]; in experiment [4]) was below 5.00 in each case.

With `Nc1nc(Nc2ccc(S(N)(=O)=O)cc2)nn1C(=O)c1c(F)cccc1F` [JNJ-7706621], the pKd at Ephrin type-B receptor 3 was below 5.00; in experiment [2], below 5.00; in experiment [3] it was 6.92.

Regarding `CCOc1cc2ncc(C#N)c(Nc3ccc(F)c(Cl)c3)c2cc1NC(=O)/C=C/CN(C)C` [PELITINIB], the pKd (in experiment [1]; on Ephrin type-B receptor 3; in experiment [2]; in experiment [4]) was below 5.00 each time.

As to `Oc1ccc(-c2nc(-c3ccncc3)c(-c3ccc(F)cc3)[nH]2)cc1` [SB-202190], the pKd (in experiment [1]; on Ephrin type-B receptor 3; in experiment [2]; in experiment [3]; in experiment [4]) was below 5.00 throughout.

Consider `NC(=O)c1ccc(-c2nc(-c3ccc4c(c3)OCO4)c(-c3ccccn3)[nH]2)cc1` [SB-431542], for which the pKd (on Ephrin type-B receptor 3; in experiment [2]; in experiment [3]; in experiment [4]) was below 5.00 each time.
